From article PMC11279404, “Discovery of 1H-benzo[d]imidazole-(halogenated)Benzylidenebenzohydrazide Hybrids as Potential Multi-Kinase Inhibitors” (Pharmaceuticals, 2024) come the findings set out here.

The test system of one data set is Bax. Put plainly: Apoptotic protein level by ELISA, Bax. In kind it is cell-based, human. The following applies: HepG2 cells; for Protein Expression Bax: ELISA, control 71.075 ± 2.762, mean ± SD of triplicate; for Protein Expression Bax (Folds): relative to control (1). The method, then:
(§1) To further elucidate the mechanism by which compound 6i induces cell death, the expression levels of key apoptotic proteins were assessed in the HepG2 cell line. […] Specifically, the levels of the pro-apoptotic proteins caspase-3 and Bax were markedly higher in the compound 6i-treated group compared with the control. […] Additional studies are warranted to elucidate the detailed molecular mechanisms underlying the apoptosis-inducing effects of compound 6i and to assess its therapeutic potential in relevant in vivo models.
(§2) Apoptotic protein levels for compound 6i were determined using an ELISA technique for caspase-3, BAX, and Bcl-2, applying a previously reported method.

In the next data set the test system is Bcl-2. In words: Apoptotic protein level by ELISA, Bcl-2. Format: cell-based, human. The following applies: HepG2 cells; for Protein Expression Bcl-2: ELISA, control 15.668 ± 0.53, mean ± SD of triplicate.
In another data set the test system is caspase-3. Put plainly: Apoptotic protein level by ELISA, caspase-3. To be noted: HepG2 cells; for Protein Expression Caspase-3: ELISA, control 99.904 ± 3.88, mean ± SD of triplicate. In kind it is cell-based, human. How it is done: as §1, §2
The target of a further data set is T1, AURKC (Homo sapiens, UniProt Q9UQB9).
T1 sequence (Q9UQB9 1-309): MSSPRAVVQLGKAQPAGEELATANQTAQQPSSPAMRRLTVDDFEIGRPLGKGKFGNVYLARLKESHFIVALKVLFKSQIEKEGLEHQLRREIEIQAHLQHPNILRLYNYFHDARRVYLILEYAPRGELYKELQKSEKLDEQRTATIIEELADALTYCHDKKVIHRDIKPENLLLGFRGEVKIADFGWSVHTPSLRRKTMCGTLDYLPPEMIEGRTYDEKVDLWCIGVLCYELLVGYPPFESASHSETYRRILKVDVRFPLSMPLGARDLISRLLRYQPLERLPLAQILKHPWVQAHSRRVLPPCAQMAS
In words: In vitro protein kinase inhibition, AURKC.

Data set [1] has as its system HCT-116 (human colon cancer cell line). In words: MTT in vitro cytotoxicity, HCT-116. In kind it is cell-based. The following applies: for IC50: Homo sapiens, HCT-116, MTT, mean ± SD of triplicate; for SI (Selectivity Index) HCT-116: IC50 of WI-38 / IC50 of HCT-116.
For data set [2], the system named is cancer cell lines (HCT-116, HepG2, MCF-7). In words: MTT in vitro cytotoxicity, summary across the cancer cell line panel. Format: cell-based. The following applies: Homo sapiens; summary over HCT-116, HepG2, MCF-7; read-out: IC50 values across the tested cancer cell lines. The method, then:
The cytotoxic activities of compounds 6a-l were assessed using a standard MTT method, which was performed across three different cancer cell line models, namely human colon cancer (HCT-116), hepatocellular carcinoma (HepG2), mammary gland cancer (MCF-7), and normal (WI-38) cell lines. […] […]. Substitution at the 4-position, as in the case of compounds 6d, 6g, and 6j, also seems beneficial, with fluoro (6j) showing the best results. […]. Overall, the cytotoxicity data provide valuable insights into the structure–activity relationships of the synthesized compounds and can guide further optimization efforts to develop potential anticancer agents with improved potency and selectivity.
. The SI values represent the ratio of the IC50 values for the normal WI-38 cell line compared with the respective cancer cell lines, with higher SI values indicating greater selectivity for the cancer cells over normal cells. […]. The cytotoxic potential of compounds 6a-l was evaluated against a panel of cancer cell lines, including HCT-116, HepG2, and MCF-7, as well as a normal cell line, WI-38, using the reported methodology. The cell lines utilized in this study were obtained from the American Type Culture Collection (ATCC) through the Holding Company for Biological Products and Vaccines (VACSERA) in Cairo, Egypt. These included: 1. A human colon cancer cell line (HCT-116); 2. Hepatocellular carcinoma (HepG2)—a liver cancer cell line; 3. Mammary gland breast cancer (MCF-7); and 4. A human lung fibroblast (WI-38)—a normal cell line.

The target of a further data set is CDK2 (Homo sapiens, UniProt P24941). In words: In vitro protein kinase inhibition, CDK2.
Another data set addresses EGFR (Homo sapiens, UniProt P00533). In words: In vitro protein kinase inhibition, EGFR.
Another data set concerns the target mTOR (Homo sapiens, UniProt P42345). In words: In vitro enzyme inhibition, mTOR.
Data set [3] deals with HepG2 (hepatocellular carcinoma cell line). In words: MTT in vitro cytotoxicity, HepG2. In kind it is cell-based, human. The following applies: for IC50: Homo sapiens, HepG2, MTT, mean ± SD of triplicate; for SI (Selectivity Index) HepG2: IC50 of WI-38 / IC50 of HepG2.
Data set [4] has as its system HepG2 cells. In words: Cell cycle analysis (propidium iodide flow cytometry). In kind it is cell-based, human. The text has this: Following the treatment, the cells were stained with propidium iodide and analyzed using flow cytometry to determine the cell cycle phase distribution. […] The quantitative data further substantiated this observation. […] It led to a marked accumulation of cells in the G1 phase, accompanied by a concomitant reduction in the proportion of cells in the S and G2/M phases. The cell cycle arrest effect observed with compound 6i may be a key mechanistic aspect contributing to its anticancer potential. The observed cell cycle arrest at the G1 phase is a common mechanism of action for many anti-cancer agents, as it can prevent cell division and proliferation, ultimately leading to cell cycle arrest and potentially inducing apoptosis or other forms of cell death.
The cell cycle distribution index (CDI) is a metric that quantifies the rate of cell proliferation, calculated as CDI = (G2/M + S)/[…], where the values represent the percentages of cells in each phase. In this study, the CDI values for the control and compound 6i-treated HepG2 cells were 0.91 and 0.39, respectively. […] Compound 6i was further evaluated for apoptosis analysis in HepG2 cell lines.

Another data set addresses VEGFR2 (Homo sapiens, UniProt P35968). In words: In vitro protein kinase inhibition, VEGFR2. Format: biochemical. The following applies: mean ± SD of triplicate. The text has this: […]. […] […].
Data set [5] has as its system MCF-7 (mammary gland breast cancer cell line). Put plainly: MTT in vitro cytotoxicity, MCF-7. To be noted: for IC50: Homo sapiens, MCF7, MTT, mean ± SD of triplicate; for SI (Selectivity Index) MCF-7: IC50 of WI-38 / IC50 of MCF-7. In kind it is cell-based, human.
Data set [6] in a line: MTT in vitro cytotoxicity, normal WI-38. Format: cell-based. The following applies: human, WI-38 normal lung fibroblast cells, normal cell line, mean ± SD of triplicate.
The target in a further data set is HDAC1 (Homo sapiens, UniProt Q13547). Put plainly: In vitro enzyme inhibition, HDAC1. In kind it is biochemical. The following applies: mean ± SD of triplicate; read-out: In Vitro Protein Kinase Inhibition IC50 HDAC1.
Chain of HDAC1 (Q13547 whole entry): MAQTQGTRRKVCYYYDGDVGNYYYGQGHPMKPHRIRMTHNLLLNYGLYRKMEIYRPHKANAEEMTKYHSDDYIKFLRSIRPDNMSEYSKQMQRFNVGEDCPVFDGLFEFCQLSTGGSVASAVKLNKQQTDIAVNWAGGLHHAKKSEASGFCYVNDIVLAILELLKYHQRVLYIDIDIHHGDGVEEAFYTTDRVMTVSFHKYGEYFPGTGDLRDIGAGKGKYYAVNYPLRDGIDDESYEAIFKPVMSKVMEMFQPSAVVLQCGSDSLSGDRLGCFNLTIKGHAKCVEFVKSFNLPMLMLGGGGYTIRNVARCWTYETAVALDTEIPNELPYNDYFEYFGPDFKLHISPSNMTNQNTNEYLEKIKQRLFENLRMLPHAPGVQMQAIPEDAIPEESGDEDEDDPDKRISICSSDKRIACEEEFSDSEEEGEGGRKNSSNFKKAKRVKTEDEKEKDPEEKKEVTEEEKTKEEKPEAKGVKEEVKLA
A further data set concerns the target Her2 (Homo sapiens, UniProt P04626). Put plainly: In vitro protein kinase inhibition, Her2.
The subject of data set [7] is HepG2 cells. In words: Annexin-V/propidium iodide double staining apoptosis assay. In kind it is cell-based, human. To be noted: HepG2 cells treated at IC50 concentration for 24 h. How it is done: To investigate the mode of cell death induced by the synthesized compound 6i, flow cytometry analysis was performed. […] Following the treatment, the cells were double-stained with Annexin V and propidium iodide (PI) to assess the levels of apoptosis and necrosis. The data presented in Table 4 reveal a significant decline in the percentage of viable cells in the compound 6i-treated group (63.93%) compared with the untreated control group (97.58%). […] Additionally, in the late stages of apoptosis, the percentage of apoptotic cells rose from 0.21% in the control group to 9.98% in the compound 6i-treated group. […] The apoptosis levels in the control HepG2 cell lines and the cells treated with compound 6i are shown in the graphical representation provided in Figure 3.
The apoptosis effect of compound 6i was studied using a previously reported method.

Chain of Her2 (P04626 23-1255): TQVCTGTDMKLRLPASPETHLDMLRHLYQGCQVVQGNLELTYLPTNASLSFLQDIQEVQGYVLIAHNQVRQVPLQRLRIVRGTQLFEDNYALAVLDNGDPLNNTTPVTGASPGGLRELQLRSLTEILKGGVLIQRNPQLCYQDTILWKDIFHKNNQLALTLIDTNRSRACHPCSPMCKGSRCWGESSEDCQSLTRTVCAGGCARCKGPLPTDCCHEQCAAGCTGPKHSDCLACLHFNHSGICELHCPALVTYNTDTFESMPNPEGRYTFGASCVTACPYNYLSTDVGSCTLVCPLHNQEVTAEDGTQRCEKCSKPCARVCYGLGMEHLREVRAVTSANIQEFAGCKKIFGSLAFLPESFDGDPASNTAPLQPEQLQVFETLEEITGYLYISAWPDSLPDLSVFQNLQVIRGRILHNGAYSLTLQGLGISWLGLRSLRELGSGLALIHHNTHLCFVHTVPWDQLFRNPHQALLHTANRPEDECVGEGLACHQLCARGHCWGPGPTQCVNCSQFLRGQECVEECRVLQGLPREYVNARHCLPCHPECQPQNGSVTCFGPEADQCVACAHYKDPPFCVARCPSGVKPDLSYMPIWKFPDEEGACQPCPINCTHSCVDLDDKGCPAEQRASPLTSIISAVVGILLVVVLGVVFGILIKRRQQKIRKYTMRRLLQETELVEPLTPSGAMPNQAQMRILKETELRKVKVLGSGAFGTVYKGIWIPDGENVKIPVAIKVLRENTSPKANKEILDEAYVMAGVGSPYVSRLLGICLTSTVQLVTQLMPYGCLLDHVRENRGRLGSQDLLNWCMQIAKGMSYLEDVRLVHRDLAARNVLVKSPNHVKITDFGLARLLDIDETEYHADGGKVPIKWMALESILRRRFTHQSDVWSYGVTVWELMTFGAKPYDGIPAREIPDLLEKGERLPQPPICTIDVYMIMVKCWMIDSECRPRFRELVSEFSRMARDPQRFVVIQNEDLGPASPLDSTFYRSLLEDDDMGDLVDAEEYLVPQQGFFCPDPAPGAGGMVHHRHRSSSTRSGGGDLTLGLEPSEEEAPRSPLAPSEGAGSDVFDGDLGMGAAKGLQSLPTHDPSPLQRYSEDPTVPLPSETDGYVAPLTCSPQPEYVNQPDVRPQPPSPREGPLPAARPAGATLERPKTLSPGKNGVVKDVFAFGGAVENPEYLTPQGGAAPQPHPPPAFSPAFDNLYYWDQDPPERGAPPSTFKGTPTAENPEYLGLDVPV
Chain of VEGFR2 (P35968 20-1356): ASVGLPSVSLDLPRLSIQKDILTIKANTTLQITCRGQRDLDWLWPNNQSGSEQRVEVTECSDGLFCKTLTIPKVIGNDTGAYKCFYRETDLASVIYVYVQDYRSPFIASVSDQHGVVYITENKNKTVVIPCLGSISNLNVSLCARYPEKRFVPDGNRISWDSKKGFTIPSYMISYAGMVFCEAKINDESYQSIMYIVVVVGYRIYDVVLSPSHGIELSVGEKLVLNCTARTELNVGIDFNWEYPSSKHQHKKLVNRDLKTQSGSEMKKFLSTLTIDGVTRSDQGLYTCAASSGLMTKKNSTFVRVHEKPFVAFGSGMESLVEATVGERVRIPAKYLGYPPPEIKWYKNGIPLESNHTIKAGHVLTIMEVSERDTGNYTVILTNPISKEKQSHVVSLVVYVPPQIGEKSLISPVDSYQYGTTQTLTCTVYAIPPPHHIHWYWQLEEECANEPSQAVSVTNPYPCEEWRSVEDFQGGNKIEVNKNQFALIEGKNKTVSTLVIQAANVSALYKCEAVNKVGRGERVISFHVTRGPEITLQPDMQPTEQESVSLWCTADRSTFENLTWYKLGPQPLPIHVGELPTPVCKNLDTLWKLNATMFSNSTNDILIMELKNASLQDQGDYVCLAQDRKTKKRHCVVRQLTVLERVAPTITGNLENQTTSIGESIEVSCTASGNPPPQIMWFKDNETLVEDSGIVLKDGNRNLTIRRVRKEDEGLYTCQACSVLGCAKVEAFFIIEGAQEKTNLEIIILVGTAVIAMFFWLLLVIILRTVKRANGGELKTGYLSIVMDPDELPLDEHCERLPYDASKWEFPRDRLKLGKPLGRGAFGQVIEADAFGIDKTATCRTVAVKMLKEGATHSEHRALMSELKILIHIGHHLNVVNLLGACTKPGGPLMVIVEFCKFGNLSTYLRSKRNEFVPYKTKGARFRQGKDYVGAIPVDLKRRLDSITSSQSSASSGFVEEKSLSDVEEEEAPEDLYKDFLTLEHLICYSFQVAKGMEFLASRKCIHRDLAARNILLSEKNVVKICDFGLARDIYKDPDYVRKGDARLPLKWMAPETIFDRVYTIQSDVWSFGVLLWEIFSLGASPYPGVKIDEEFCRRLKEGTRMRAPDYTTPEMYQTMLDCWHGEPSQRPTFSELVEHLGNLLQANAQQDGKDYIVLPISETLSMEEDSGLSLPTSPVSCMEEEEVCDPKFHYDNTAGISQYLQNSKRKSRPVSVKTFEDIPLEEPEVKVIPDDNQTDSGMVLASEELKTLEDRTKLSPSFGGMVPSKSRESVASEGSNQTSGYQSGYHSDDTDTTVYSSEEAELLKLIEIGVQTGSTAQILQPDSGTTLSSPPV
Chain of EGFR (P00533 25-1210): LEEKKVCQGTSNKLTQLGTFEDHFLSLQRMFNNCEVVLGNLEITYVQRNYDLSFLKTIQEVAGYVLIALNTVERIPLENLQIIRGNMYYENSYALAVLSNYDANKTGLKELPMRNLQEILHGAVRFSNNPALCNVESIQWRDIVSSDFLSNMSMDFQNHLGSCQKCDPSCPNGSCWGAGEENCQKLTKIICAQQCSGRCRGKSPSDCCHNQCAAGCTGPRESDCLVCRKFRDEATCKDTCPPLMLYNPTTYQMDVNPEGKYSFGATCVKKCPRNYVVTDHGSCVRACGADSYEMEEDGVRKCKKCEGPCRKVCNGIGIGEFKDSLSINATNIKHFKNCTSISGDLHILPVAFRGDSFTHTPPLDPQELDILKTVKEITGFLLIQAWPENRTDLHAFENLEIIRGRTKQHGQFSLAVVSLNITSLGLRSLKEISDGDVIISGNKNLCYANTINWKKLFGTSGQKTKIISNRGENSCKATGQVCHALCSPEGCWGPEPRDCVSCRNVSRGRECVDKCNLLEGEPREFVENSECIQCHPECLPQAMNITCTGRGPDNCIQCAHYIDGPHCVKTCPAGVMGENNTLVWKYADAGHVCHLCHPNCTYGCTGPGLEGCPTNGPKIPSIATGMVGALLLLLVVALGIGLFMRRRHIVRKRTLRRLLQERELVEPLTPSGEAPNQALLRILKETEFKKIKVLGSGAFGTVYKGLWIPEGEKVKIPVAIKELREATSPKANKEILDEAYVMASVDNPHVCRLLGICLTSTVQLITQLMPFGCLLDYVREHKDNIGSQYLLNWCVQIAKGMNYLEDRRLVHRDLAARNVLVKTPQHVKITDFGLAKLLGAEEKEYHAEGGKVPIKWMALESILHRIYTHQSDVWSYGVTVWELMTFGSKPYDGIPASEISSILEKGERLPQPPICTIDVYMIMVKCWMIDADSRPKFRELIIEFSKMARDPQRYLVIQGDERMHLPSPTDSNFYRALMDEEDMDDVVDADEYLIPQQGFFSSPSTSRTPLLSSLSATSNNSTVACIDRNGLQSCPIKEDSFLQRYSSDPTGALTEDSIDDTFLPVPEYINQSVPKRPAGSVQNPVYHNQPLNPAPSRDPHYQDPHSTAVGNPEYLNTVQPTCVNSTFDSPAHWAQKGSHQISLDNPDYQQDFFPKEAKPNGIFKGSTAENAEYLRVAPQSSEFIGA

For the compound `CN[C@@H]1C[C@H]2O[C@@](C)([C@@H]1OC)n1c3ccccc3c3c4c(c5c6ccccc6n2c5c31)C(=O)NC4` [Saurosporine, staurosporine, reference compound], in the data set on Bax, the “Protein Expression Bax” value was 386.743 ± 15.03 pg/mL and the “Protein Expression Bax (Folds)” value was determined as 5.44 Folds. In the data set with Bcl-2, the “Protein Expression Bcl-2” value came out at 3.336 ± 0.11 pg/mL. Further, in the data set with caspase-3, the “Protein Expression Caspase-3” value is 541.162 ± 21.02 pg/mL. Moreover, in the data set with caspase-3 (relative to control (1)), the “Protein Expression Caspase-3 (Folds)” value was found to be 5.4 Folds.
`O=C(N/N=C/c1cccc(F)c1)c1ccc(NCc2nc3ccccc3[nH]2)cc1` [6i, (E)-4-(((1H-benzo[d]imidazol-2-yl)methyl)amino)-N′-(3-fluorobenzylidene)benzohydrazide]: the half-inhibitory concentration (IC50) against AURKC was 74.5 ± 0.003 nM; in [1] it was 13400 ± 1200 nM; in data set [2], 7820 to 10200 nM; against CDK2 it was 364 ± 0.011 nM; against EGFR, 30.1 ± 0.03 nM; against mTOR, 152 ± 0.005 nM. The concentration for half-maximal inhibition (IC50) worked out at 9390 ± 800 nM in data set [3]; 172.2 ± 0.006 nM at VEGFR2; 11600 ± 900 nM in data set [5]; 56500 ± 3000 nM in data set [6]; 96.6 ± 0.003 nM on HDAC1; 28.3 ± 0.001 nM against Her2. Besides, in data set [1], the “SI (Selectivity Index) HCT-116” value worked out at 4.20. The “SI (Selectivity Index) HepG2” value in data set [3] was 6.01. The “Protein Expression Bax” value in the data set with Bax was 513.731 ± 19.96 pg/mL. The “Protein Expression Bax (Folds)” value in the data set with Bax stood at 7.22 Folds. Moreover, the “Bcl-2 level, fold lower compared with the control” value in the data set with Bcl-2 was 7.5 fold. Moreover, in the data set with Bcl-2, the “Protein Expression Bcl-2” value turned out to be 2.073 ± 0.07 pg/mL. In addition, in the data set on Bcl-2 (relative to control (1)), the “Protein Expression Bcl-2 (Folds)” value turned out to be 0.132 Folds. Further, the “Protein Expression Caspase-3” value in the data set on caspase-3 stood at 388.497 ± 15.09 pg/mL. The “Cell Cycle Distribution Index (CDI)” value in the data set on HepG2 cells [4] (CDI = (G2/M + S)/(G0-G1), HepG2, IC50 concentration, 24 h, control 0.91) is 0.39. In addition, in the data set with HepG2 cells [4] (HepG2 cells treated at IC50 concentration for 24 h, control 12.84), the “DNA Content (%) %G2/M” value came out at 2.68%. Further, the “DNA Content (%) %S” value with HepG2 cells [4] (HepG2 cells treated at IC50 concentration for 24 h, control 34.77) stood at 25.19%. For the same compound, the “DNA Content (%) %G0-G1” value with HepG2 cells [4] (HepG2 cells treated at IC50 concentration for 24 h, control 52.39) turned out to be 72.13%. Besides, in [5], the “SI (Selectivity Index) MCF-7” value was 4.85. For the same compound, the “Apoptosis Late” value in the data set with HepG2 cells [7] (control 0.21) stood at 9.98%. In addition, the “Apoptosis Early” value with HepG2 cells [7] (control 0.61) came to 22.07%. Besides, the Necrosis in the data set on HepG2 cells [7] (control 1.6) is 4.02%. Besides, the “Alive Cell (%)” value in the data set with HepG2 cells [7] (control 97.58) is on record as 63.93%.
Regarding `O=C(N/N=C/c1ccc(F)cc1)c1ccc(NCc2nc3ccccc3[nH]2)cc1` [6j, (E)-4-(((1H-benzo[d]imidazol-2-yl)methyl)amino)-N′-(4-fluorobenzylidene)benzohydrazide], the melting point is 291 °C. The compound also had an IC50 on AURKC of 589.4 ± 0.022 nM. Besides, in data set [1], the 50% inhibitory concentration (IC50) amounted to 18700 ± 1400 nM and the “SI (Selectivity Index) HCT-116” value was 2.08. The IC50 in data set [2] is less than 30000 nM. Further, the midpoint of inhibition against CDK2, the IC50, lay at 1448 ± 0.062 nM. On EGFR, this compound came in with a 50% inhibitory concentration (IC50) of 166.4 ± 0.008 nM. On mTOR, this compound returned an IC50 of 1305 ± 0.044 nM. In data set [3], the half-inhibitory concentration (IC50) was determined as 14000 ± 1200 nM and the “SI (Selectivity Index) HepG2” value was 2.78. Also, at VEGFR2, inhibition was half-maximal at 307.2 ± 0.011 nM (IC50). Also, in data set [5], the IC50 was determined as 8310 ± 700 nM and the “SI (Selectivity Index) MCF-7” value came out at 4.70. In data set [6], this compound returned an IC50 of 39000 ± 2300 nM. In addition, the half-inhibitory concentration (IC50) on HDAC1 stood at 473.3 ± 0.016 nM. At Her2, this compound had a half-inhibitory concentration (IC50) of 204.7 ± 0.009 nM.
